Results reported in ChEMBL document CHEMBL1142248, “Structure-activity relationships and pharmacokinetic parameters of quinoline acylsulfonamides as potent and selective antagonists of the EP(4) receptor” (Bioorg Med Chem Lett, 2008).

How the values were obtained:
[1] = Metabolic stability in rat hepatocytes at 20 uM after 2 hrs; type: ADME, cell-based, Hepatocyte; settings: read-out: Stability
[2] = Bioavailability in rat at 20 mg/kg, po or 10 mg/kg, iv; type: ADME, organism-based; settings: in vivo
[3] = Bioavailability in rhesus monkey at 4 mg/kg, po or 2 mg/kg, iv; type: ADME, organism-based, Macaca mulatta; settings: in vivo
[4] = Volume of distribution at steady state in rhesus monkey at 4 mg/kg, po or 2 mg/kg, iv; type: ADME, organism-based, Macaca mulatta; settings: in vivo, read-out: Vdss
[5] = Clearance in rhesus monkey at 4 mg/kg, po or 2 mg/kg, iv; type: ADME, organism-based, Macaca mulatta; settings: in vivo
[6] = Half life in rhesus monkey at 2 mg/kg, iv; type: ADME, organism-based, Macaca mulatta; set-up: dose 2 mg/kg, route intravenous; settings: in vivo
[7] = Clearance in dog at 4 mg/kg, po or 5 mg/kg, iv; type: ADME, organism-based, Canis lupus familiaris; settings: in vivo
[8] = Metabolic stability in human hepatocytes at 20 uM after 2 hrs; type: ADME, cell-based, Hepatocyte; settings: read-out: Stability
[9] = Clearance in mouse at 100 mg/kg, po or 10 mg/kg, iv; type: ADME, organism-based; settings: in vivo
[10] = Half life in rat at 10 mg/kg, iv; type: ADME, organism-based; set-up: dose 10 mg/kg, route intravenous; settings: in vivo
[11] = Metabolic stability in dog hepatocytes at 20 uM after 2 hrs; type: ADME, cell-based, Canis lupus familiaris, Hepatocyte; settings: read-out: Stability
[12] = Volume of distribution at steady state in mouse at 100 mg/kg, po or 10 mg/kg, iv; type: ADME, organism-based; settings: in vivo, read-out: Vdss
[13] = Metabolic stability in rhesus monkey hepatocytes at 20 uM after 2 hrs; type: ADME, cell-based, Macaca mulatta, Hepatocyte; settings: read-out: Stability
[14] = Half life in dog at 5 mg/kg, iv; type: ADME, organism-based, Canis lupus familiaris; set-up: dose 5 mg/kg, route intravenous; settings: in vivo
[15] = Bioavailability in mouse at 100 mg/kg, po or 10 mg/kg, iv; type: ADME, organism-based; settings: in vivo
[16] = Clearance in rat at 20 mg/kg, po or 10 mg/kg, iv; type: ADME, organism-based; settings: in vivo
[17] = Volume of distribution at steady state in rat at 20 mg/kg, po or 10 mg/kg, iv; type: ADME, organism-based; settings: in vivo, read-out: Vdss
[18] = Bioavailability in dog at 4 mg/kg, po or 5 mg/kg, iv; type: ADME, organism-based, Canis lupus familiaris; settings: in vivo
[19] = Half life in mouse at 10 mg/kg, iv; type: ADME, organism-based; set-up: dose 10 mg/kg, route intravenous; settings: in vivo
[20] = Volume of distribution at steady state in dog at 4 mg/kg, po or 5 mg/kg, iv; type: ADME, organism-based, Canis lupus familiaris; settings: in vivo, read-out: Vdss

`COc1cccc(OC)c1C1(C(=O)[N-]S(=O)(=O)Cc2ccc(N3Cc4c(c(OCC(F)(F)F)c5cccnc5c4OCC(F)(F)F)C3=O)c(C)c2)CC1.[Na+]` showed a remaining at 2 h, 20 µM [1] of 6%, a bioavailability [2] of 73% and a bioavailability [3] of 40%. It also gave a Vd [4] of 0.3 L/kg, a clearance [5] of 2 mL/min/kg and a half-life [6] of 3.8 h. The clearance [7] was 0.2 mL/min/kg, the remaining at 2 h, 20 µM [8] was 36% and the clearance [9] was 2.6 mL/min/kg. It also gave a half-life [10] of 14.8 h, a remaining at 2 h, 20 µM [11] of 20% and a Vd [12] of 0.7 L/kg. The remaining at 2 h, 20 µM [13] was 39%, the half-life [14] was 13.2 h and the bioavailability [15] was 44%. For the same compound, the clearance [16] was 0.6 mL/min/kg, the Vd [17] was 0.7 L/kg and the bioavailability [18] was 69%. The half-life [19] was 3.5 h and the Vd [20] was 0.2 L/kg.
